Reference: US6472404B1 (priority 2000, dated 2002)

Tests used:
HIV-HXB2 = assay: Antiviral assay: protection of HIV-infected MT4 cells from cell death (MTT); type: cell-based; conditions: Human immunodeficiency virus 1, 120 h; MT4 cells infected with HIV-HXB2; 5 days; MTT viability; rounded to nearest whole number
Method: Methods 20: 309-321]. The method is based on the ability of compounds to protect HIV-infected T lymphoblastoid cells (MT4 cells) from cell-death mediated by the infection. The endpoint of the assay was calculated as the concentration of compound at which the cell viability of the culture was preserved by 50% (‘50% inhibitory concentration’, IC50). The cell viability of a culture was determined by the uptake of soluble, yellow 3-[4,5-dimethylthiazol-2-yl]-2,5-diphenyltetrazolium bromide (MTT) and its reduction to a purple insoluble formazan salt. After solubilization, spectrophotometric methods were employed to measure the amount of formazan product.
MT4 cells were prepared to be in logarithmic-phase growth and a total of 2×10^6 cells infected with either the wild type or site directed mutant clones of HIV-HXB2 at a multiplicity of approximately 0.0001 infectious units of virus per cell in a total volume of between 200-500 μl. The cells were incubated with virus for one hour at 37° C. then washed in 0.01 M phosphate buffered saline, pH 7.2, and resuspensed in culture medium for incubation in culture with serial dilutions of test compound. The culture medium used was RPMI 1640 without phenol red, supplemented with penicillin, streptomycin, L-glutamine and 10% fetal calf serum (GM10).
Test compounds were prepared as 2 mM solutions in dimethyl sulphoxide (DMSO). Four replicate, serial 2-fold dilutions in GM10 were then prepared and 50 microliter amounts placed in 96-well plates over a final concentration range of […]. Fifty microliters GM10 and 3.75×10^4 infected cells were then added to each well. Control cultures containing no cells (blank), uninfected cells (100% viability; 4 replicates) and infected cells without compound (total virus-mediated cell death; 4 replicates) were also prepared. The cultures were then incubated at 37° C. in a humidified atmosphere of 5% CO2 in air for 5 days.
A fresh solution of 5 mg/mL MTT was prepared in 0.01 M phosphate buffered saline, pH 7.2 and 20 μL added to each culture. The cultures were further incubated as before for 2 hours. They were then mixed by pipetting up and down, and 170 microliters of Triton X-100 in acidified isopropanol (10% v/v Triton X-100 in 1:250 mixture of concentrated HCl in isopropanol) were added and the cultures were mixed again by pipetting up and down. When the formazan deposit was fully solubilized by further mixing, the absorbance (OD) of the cultures was measured at 540 nm and 690 nm wavelength (690 nm readings were used as blanks for artefacts between wells). The percent protection for each treated culture was then calculated from the equation:
OD drug-treated cultures)−(OD untreated virus control cultures) % Protection=100%
(OD uninfected cultures)−(OD untreated virus control cultures)
The IC50 was then obtained from graph plots of percentage protection versus log10 drug concentration.

HIV-1 protease = HIV-1 protease (Human immunodeficiency virus type 1 group M subtype B, UniProt P04585); assay: HIV protease inhibition assay (quenched fluorogenic substrate, fluorescence energy transfer)
Method: HIV protease inhibitory activity was assessed using an adaptation of the method of Matayoshi. et al. [Matayoshi E. D. et al (1990).
Crude HIV-1 protease was prepared from E. coli pPTΔN. Cultures were grown at 30° in M9 medium supplemented with 0.2% casamino acids, 100 μg/ml ampicillin and 25 μg/ml thiamine until OD600=0.5-0.6, and the temperature was raised to 42° to induce expression of the protease. After 1.5 hours, the cells were harvested and the pellets stored at −70° until required.
The protease was prepared by lysis of the cells in a French pressure cell followed by precipitation of the enzyme with ammonium sulfate at 30% saturation.
The assay buffer comprised 0.1M sodium acetate pH 4.7, 8 mM EDTA, 0.2 M NaCl.
Tubes were incubated for 2 hours at 37° and the reaction was terminated by the addition of 500 μl of a 2:1 mixture of DMSO:50 mM Tricine pH 8.5. Fluorescence was measured in a fluorescence spectrophotometer, excitation λ=340 nm, emission λ=492 nm.

CC(C)(C)NC(=O)[C@@H]1C[C@@H]2CCCC[C@@H]2CN1C[C@@H](O)[C@H](Cc1ccccc1)NC(=O)[C@@H](NC(=O)COc1cccnc1)C(C)(C)S(C)(=O)=O [Example 3, N-tert-butyl-1,2,3,4,4a(S),5,6,7,8a(S)-decahydro-2-[2(R)-hydroxy-3(S)-[[3-(methanesulfonyl)-N-[2-(3-pyridyloxy)acetyl]-L-valyl]amino]-4-phenylbutyl]-3(S)-isoquinolinecarboxamide]
IC50 (HIV-HXB2): 17 nM | IC50 (HIV-1 protease): 0.6 nM

CC(C)(C)NC(=O)[C@@H]1C[C@@H]2CCCC[C@@H]2CN1C[C@@H](O)[C@H](Cc1ccccc1)NC(=O)[C@@H](NC(=O)c1cccnc1)C(C)(C)S(C)(=O)=O [Example 7, N-tert-butyl-1,2,3,4,4a(S),5,6,7,8,8a(S)-decahydro-2-[2(R)-hydroxy-3(S)-[[3-(methanesulfonyl)-N-[(3-pyridyl)carbonyl]-L-valyl]amino]-4-phenylbutyl]-3(S)-isoquinolinecarboxamide]
IC50 (HIV-HXB2): 21 nM | IC50 (HIV-1 protease): 2.3 nM

CC(C)(C)NC(=O)[C@@H]1C[C@@H]2CCCC[C@@H]2CN1C[C@@H](O)[C@H](Cc1ccccc1)NC(=O)[C@@H](NC(=O)c1ccc(Cl)nc1)C(C)(C)S(C)(=O)=O [Example 16, N-tert-Butyl-2-[3-(S)-[[N-[(6-chloro-3-pyridyl)carbonyl]-3-(methanesulfonyl)-L-valyl]amino]-2(R)-hydroxy-4-phenylbutyl]-1,2,3,4,4a(S),5,6,7,8,8a(S)-decahydro-3(S)-isoquinolinecarboxamide]
IC50 (HIV-HXB2): 12 nM | IC50 (HIV-1 protease): 1 nM

CC(C)(C)NC(=O)[C@@H]1C[C@@H]2CCCC[C@@H]2CN1C[C@@H](O)[C@H](Cc1ccccc1)NC(=O)[C@@H](NC(=O)c1ccoc1)C(C)(C)S(C)(=O)=O [Example 28, N-tert-Butyl-2-[3-(S)-[[N-(3-furoyl)-3-(methanesulfonyl)-L-valyl]amino]-2(R)-hydroxy-4-phenylbutyl]-1,2,3,4,4a(S),5,6,7,8,8a(S)-decahydro-3(S)-isoquinolinecarboxamide]
IC50 (HIV-HXB2): 21 nM | IC50 (HIV-1 protease): 1 nM

CC(C)(C)NC(=O)[C@@H]1C[C@@H]2CCCC[C@@H]2CN1C[C@@H](O)[C@H](Cc1ccccc1)NC(=O)[C@@H](NC(=O)c1cccc(F)c1)C(C)(C)S(C)(=O)=O [Example 40, N-tert-Butyl-2-[3-(S)-[[N-(3-fluorobenzoyl)-3-(methanesulfonyl)-L-valyl]amino]-2(R)-hydroxy-4-phenylbutyl]-1,2,3,4,4a(S),5,6,7,8,8a(S)-decahydro-3(S)-isoquinolinecarboxamide]
IC50 (HIV-HXB2): 19 nM | IC50 (HIV-1 protease): 1.4 nM

CC(C)NCC(=O)N[C@H](C(=O)N[C@@H](Cc1ccccc1)[C@H](O)CN1C[C@H]2CCCC[C@H]2C[C@H]1C(=O)NC(C)(C)C)C(C)(C)S(C)(=O)=O [Example 92, N-tert-Butyl-1,2,3,4,4a(S),5,6,7,8,8a(S)-decahydro-2-[2(R)-hydroxy-3(S)-[[N-[2-(isopropylamino)acetyl]-3-(methanesulfonyl)-L-valyl]amino]-4-phenylbutyl]-3(S)-isoquinolinecarboxamide]
IC50 (HIV-HXB2): 33 nM | IC50 (HIV-1 protease): 4 nM

CC(C)(C)NC(=O)[C@@H]1C[C@@H]2CCCC[C@@H]2CN1C[C@@H](O)[C@H](Cc1ccccc1)NC(=O)[C@@H](NC(=O)CNc1ccccc1)C(C)(C)S(C)(=O)=O [Example 93, N-tert-Butyl-1,2,3,4,4a(S),5,6,7,8,8a(S)-decahydro-2-[2(R)-hydroxy-3(S)-[3-(methanesulfonyl)-N-(N-phenylglycyl)-L-valyl]amino]-4-phenylbutyl-3(S)-isoquinolinecarboxamide]
IC50 (HIV-HXB2): 8 nM | IC50 (HIV-1 protease): 0.5 nM
